According to ChEMBL document CHEMBL1127976, “Synthesis and anti-HCMV activity of 9-[[(ethoxyhydroxyphosphinyl)methoxy]methoxy]guanine, an isostere of PMEG monoethyl ester” (Bioorg Med Chem Lett, 1994):
In brackets after ≈: the same amount, converted by molar mass.

Legend:
Human betaherpesvirus 5 [1] = test: Concentration of compound required to inhibit 50% of HCMV strain Davis induced cytopathic effect; type: functional, organism-based
[2] = Therapeutic index measured as ratio of […]; conditions: human; read-out: Therapeutic index
HEL 299 = test: Compound was tested for its cytotoxicity against human embryonic lung fibroblast cells (HEL 299) by MTT dye reduction assay; type: functional
[3] = Therapeutic index measured as ratio of EC50 for Davis/CC50 for HEL 299; conditions: human; read-out: Therapeutic index
Human betaherpesvirus 5 [4] = test: Concentration of compound required to inhibit 50% of HCMV strain AD-169 induced cytopathic effect; type: functional, organism-based

Row | Structure (SMILES) | EC50 (Human betaherpesvirus 5 [1]) [µg/mL] | selectivity ratio [2] | CC50 (HEL 299) [µg/mL] | selectivity ratio [3] | EC50 (Human betaherpesvirus 5 [4]) [µg/mL]
1 | CCOP(=O)(O)COCOn1cnc2c(O)nc(N)nc21 | 0.6 (≈ 1.88 µM) | > 200 | > 400 | > 700 | 1.8 (≈ 5.64 µM)
2 | Nc1nc2c(ncn2COC(CO)CO)c(=O)[nH]1 [GANCICLOVIR] | 0.8 (≈ 3.13 µM) | > 200 | > 400 | > 500 | 1.9 (≈ 7.44 µM)
